Literature values in patent US12514830B2, “Idebenone for the treatment of Acute Respiratory Distress Syndrome (ARDS) in patients diagnosed with a coronavirus infection” (BEMIDO SA, priority 2020, dated 2026).

Test system: patients with Duchenne muscular dystrophy (DMD)
Settings: long-term treatment, for up to 6 years, real-world setting

In the case of `COC1=C(OC)C(=O)C(CCCCCCCCCCO)=C(C)C1=O` [idebenone, 2-(10-hydroxydecyl)-5,6-dimethoxy-3-methyl-cyclohexa-2,5-diene-1,4-dione], the “rate of respiratory function loss” value is listed as “consistently reduced the rate of respiratory function loss”.
